Series [1] has as its target T1, p300-CH1 (Homo sapiens, UniProt Q09472).
T1 construct: human p300 CH1 domain (amino acid residues 323-423); GST (cleaved yes); made in house; host or cells: E. coli BL21 (DE3)
Description: Tryptophan fluorescence binding assay. The following applies: for Kd: 15N-labeled p300 CH1 domain, Trp403 fluorescence, read-out: dissociation constant, Kd. The source says: The DNA sequence of human p300 CH1 domain ([…]) was designed as an insert and subcloned into a pUC57 plasmid by Genscript, Inc. After transformation of the plasmid in JM109 bacteria (Promega), the gene sequence was subcloned into BamHI and EcoRI restriction sites of pGEX-4T-2 expression vector (Amersham). The pGEX 4T-2-p300 fusion vector was transformed into BL21 (DE3)-competent E. coli (Novagen) in M9 minimal media with ^15NH4Cl as the main nitrogen source. Protein production was induced with 1 mM IPTG at O.D. 600 of 1 for 16 hours at 15° C. Production of the desired p300-CH1-GST fusion product was verified by SDS-PAGE. Bacteria were harvested and resuspended in the lysis buffer with 20 mM Phosphate buffer (Research Products International, Corp.), 100 μM DTT (Fisher), 100 μM ZnSO4 (Sigma), 0.5% TritonX 100 (Sigma), […] Pepstatin A (Research Products International, Corp.), […] Leupeptin A (Research Products International, Corp.), 500 μM PMSF (Sigma), and 0.5% glycerol at pH 8.0. Pellets were lysed by sonication and centrifuged at 4° C., 20,000 rpm, for 20 minutes. Fusion protein was collected from the bacterial supernatant and purified by affinity chromatography using glutathione Sepharose 4B beads (Amersham) prepared according to the manufacturer's directions. GST-tag was cleaved by thrombin and protein was eluted from resin. […] Spectra were recorded on a QuantaMaster 40 spectrofluorometer (Photon Technology International) in a 10 mm quartz fluorometer cell at 25° C. with 4 nm excitation and 4 nm emission slit widths from 200 to 400 nm at intervals of 1 nm/s. Samples were excited at 295 nm and fluorescence emission was measured from 200-400 nm and recorded at 335 nm. Peptide stock solutions were prepared in DMSO. Aliquots containing 1 μL DMSO stocks were added to 400 μL of 1 μM p300-CH1 in 50 mM Tris and 100 mM NaCl (pH 8.0). After each addition, the sample was allowed to equilibrate for 5 minutes before UV analysis. Background absorbance and sample dilution effects were corrected by titrating DMSO into p300-CH1 in an analogous manner. Final fluorescence is reported as the absolute value of [(F1-F0)/F1]*100, where F1 is the final fluorescence upon titration and F0 is the fluorescence of the blank DMSO titration. EC50 values for each peptide were determined by fitting the experimental data to a sigmoidal dose-response nonlinear regression model on GraphPad Prism 5.0, and the dissociation constants, KD, were obtained from equation (1) […] The affinity of peptides for the ^15N-labeled p300 CH1 domain was evaluated using tryptophan fluorescence spectroscopy. […] The binding affinity of HIF-1αC-TAD to CH1 in this assay is consistent with that obtained from a fluorescence polarization assay using fluorescein-labeled HIF-1αC-TAD (FIG. 11 and FIG. 12) and those using isothermal titration microcalorimetry.

In series [2] the test system is LOX. Nature of the series: Real-time qRT-PCR of LOX expression in hypoxic HeLa cells. The series is classed as cell-based, human. Particulars: hypoxia.
For series [3], the system named is hypoxia-inducible promoter activity in MDA-MB-231-HRE-Luc cells. Nature of the series: Luciferase-based HRE promoter activity assay. The following applies: 50 μM, hypoxia by GasPak EZ pouch.
Description: MDA-MB-231-HRE-Luc cells were grown in high glucose DMEM supplemented with 10% fetal bovine serum and 0.4 g/L geneticin (RPI). Hypoxia was mimicked with desferrioxamine mesylate (DFO, Sigma) at a concentration of 300 μM or by GasPak EZ pouch (BD Biosciences). Cell growth and morphology were monitored by phase-contrast microscopy.
MDA-MB-231-HRE-Luc cells were plated in 24-well plates (BD Falcon) at a seeding density of 35,000 cells/mL. Cells were allowed to adhere and form a monolayer before adding the compounds (˜70% confluence). […] All samples contained a final concentration of 0.1% DMSO; vehicle samples were treated with cell culture media containing 0.1% DMSO. Cells were incubated for 6 hours at 37° C. and 5% CO2 and then hypoxia was induced by placing the cells into GasPak EZ pouch for another 18 hours. The lysates were isolated by using cell culture lysis reagent (Promega). Prior to collecting cell lysate, halt protease inhibitor cocktail (Thermo Scientific) was added to the cell culture lysis reagent in order to ensure the stability of proteins. Cell lysates were collected into low-adhesion pre-chilled Eppendorf tubes (USA Scientific) and centrifuged at 13,000 rpm for 5 minutes at 4° C. Supernatant was collected into another set of pre-chilled Eppendorf tubes and the pellet was discarded. Luciferase assay reagent (100 μL, Promega) was added to 20 μL of cell lysate and luminescence intensity was measured by Turner TD-20e luminometer. The results were normalized to total protein concentration determined by BCA assay. Briefly, 10 μL of cell lysate was added to 200 μL of BCA reagent. Absorbance was measured at 562 nm using a BioTek Synergy 2 microplate reader and normalized to BSA solutions at a concentration range of 125 μg/mL to 2000 μg/mL as standards.
For series [4], the target named is T2, p300-CH1/Flu-HIF C-TAD complex (Homo sapiens, UniProt Q09472).
T2 construct: human p300 CH1 domain (amino acid residues 323-423); GST (cleaved yes); made in house; host or cells: E. coli BL21 (DE3) for p300-CH1
T2 sequence (Q09472 323-423, one chain of several): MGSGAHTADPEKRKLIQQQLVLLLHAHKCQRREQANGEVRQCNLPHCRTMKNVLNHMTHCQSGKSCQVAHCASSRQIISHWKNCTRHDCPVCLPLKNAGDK
Description: Fluorescence polarization competitive inhibition assay. The series is classed as binding. On the technique in general: Fluorescence polarisation rises when a labelled molecule tumbles more slowly, as on binding a larger partner.

The test system of series [5] is HeLa cells. Nature of the series: MTT cell viability assay. The series is classed as cell-based, human. Particulars: 1 to 100 μM, 24 hours. The procedure:
HeLa cells were plated in a 96-well plate at a density of 6,000 cells/well and allowed to form a monolayer before adding the compounds. […] After 3 hours of incubation, the media was removed and purple crystals were dissolved in 100 μL of dimethyl sulfoxide (DMSO). The absorbance was measured at 570 nm with a correction at 690 nm in order to quantify the amount of formed purple formazan. All experiments were performed in quadruplicate.
HBS 1 is an efficient modulator of contacts between HIF-1α and p300/CBP. Known inhibitors of this interaction typically function allosterically, by inducing unfolding of p300/CBP through abstraction of zinc ions. This could lead to non-specific abstraction of metal ions from other biomolecules (Block et al., “Direct Inhibition of Hypoxia-Inducible Transcription Factor Complex With Designed Dimeric Epidithiodiketopiperazine,” J. Am. Chem. Soc. 131(50):18078-88 (2009), which is hereby incorporated by reference in its entirety). It was predicted that the HIF-1α mimetics should manifest their function in a more specific manner, and should not be generally cytotoxic. Cell viability assays confirm this hypothesis. […] Thus, HBS 2 may not just be a straightforward lower affinity analog of HBS 1 as designed.
(In general: Tetrazolium dyes change colour on reduction, which living cells bring about.)

The test system of series [6] is HIF-1α. Description: Western blot analysis of HIF-1α levels. The series is classed as cell-based, human. The following applies: HeLa cells, 10 μM, hypoxia mimicked with DFO 300 μM. The procedure: HeLa cells were plated in a 75 cm^2 culture flask and allowed to reach 70% confluence. Cells were treated with vehicle or HBS 1 at 10 μM concentration in the cell culture media containing 10% FBS. […] Cells were incubated for 6 hours and hypoxia was induced with 300 μM. DFO. After incubation for an additional 18 hours, cells were lysed and cytoplasmic and nuclear extracts were collected using a NE-PER kit (Pierce) according to the manufacturer's protocol and blotted as described in Dubey et al., “Suppression of Tumor Growth by Designed Dimeric Epidithiodiketopiperazine Targeting Hypoxia-Inducible Transcription Factor Complex,” J. Am. Chem. Soc. 135(11):4537-49 (2013), which is hereby incorporated by reference in its entirety.
To exclude the possibility that the observed down-regulation in the expression of hypoxia-inducible genes was due to a change in the levels of HIF-1α protein itself, a western blot analysis of HIF-1α was performed in hypoxic cells treated with HBS 1. […] As expected, the levels of induced HIF-1α protein were unaffected by treatment with HBS 1 (FIG. 16).

T1 sequence (Q09472 323-423): as the sequence (Q09472 323-423, one chain of several) above

One may read the Kd as the concentration at which binding is half-saturated. Turning to `CC(C)C[C@@H]1NC(=O)[C@H](CCC(=O)O)NC(=O)CCC=CCN([C@@H](C)C(=O)N[C@@H](CCCNC(=N)N)C(=O)N[C@@H](C)C(=O)N[C@@H](C)C(=O)N[C@@H](CC(=O)O)C(=O)N[C@@H](CCC(N)=O)C(N)=O)C1=O` [HBS 2, XELA*RAADQ-NH2], the Kd in series [1] is 2820 ± 140 nM. Further, the “binding affinity relative to HBS 1” value in series [1] (CH1 domain, compared with HBS 1) is “four-fold weaker”. Besides, the “activity on LOX expression” value in series [2] (concentration not given) was “no activity”. For the same compound, in series [3], the “reduction of luciferase expression” value is recorded as “less effective”. In series [4] (preformed p300-CH1/Flu-HIF C-TAD complex), the “inhibition of the complex on titration” value is “did not lead to reproducible inhibition”. For the same compound, the cytotoxicity entry in series [5] is reported as “higher level of cytotoxicity than HBS 1”.
Broadly, the Ki is the equilibrium dissociation constant of an inhibitor or competing ligand from its target. Higher therefore signals lower affinity. In the case of `CC(C)C[C@H](NC(=O)[C@H](C)NC(=O)[C@H](CCCNC(=N)N)NC(=O)[C@H](C)N1CC=CCCC(=O)N[C@@H](CCC(=O)O)C(=O)N[C@@H](CC(C)C)C1=O)C(=O)N[C@@H](CC(=O)O)C(=O)N[C@@H](CCC(N)=O)C(N)=O` [HBS 1, XELA*RALDQ-NH2], the Kd in series [1] came out at 690 ± 25 nM. Besides, the “increase in binding affinity by stabilization of the peptide conformation” value in series [1] (HBS 1 versus unconstrained peptide 3) is recorded as 9 fold. Also, the “downregulation of LOX expression” value turned out to be 55% in series [2] (10 μM (first of two doses)) and 70% in series [2] (50 μM (second of two doses)). Also, the “reduction of luciferase expression” value in series [3] was 25%. In addition, the inhibition constant Ki in series [4] came out at 3500 ± 1200 nM. Further, in series [5], the cytotoxicity entry is on record as “essentially non-cytotoxic”. The “levels of induced HIF-1α protein” value in series [6] is “unaffected”.

Source of the values: patent US20150065436A1, “INHIBITING INTERACTION BETWEEN HIF-1ALPHA AND p300/CBP WITH HYDROGEN BOND SURROGATE-BASED HELICES” (UNIVERSITY OF SOUTHERN CALIFORNIA, priority 2013, published 2015).
